Assay [1] has as its system HT-29. In words: Cytoprotective activity against TNF-alpha, smac mimetic, z-VAD-induced necrosis in human HT-29 cells assessed as cell survival by measuring cellular ATP level at 4 uM after 24 hrs by Cell Titer-Glo assay relative to control. To be noted: for viability at 4 µM: HT-29, 24 h, read-out: Survival. It counts as functional.
Assay [2] deals with T1, Mixed lineage kinase domain-like protein (Homo sapiens) (UniProt Q8NB16).
T1 sequence (whole entry): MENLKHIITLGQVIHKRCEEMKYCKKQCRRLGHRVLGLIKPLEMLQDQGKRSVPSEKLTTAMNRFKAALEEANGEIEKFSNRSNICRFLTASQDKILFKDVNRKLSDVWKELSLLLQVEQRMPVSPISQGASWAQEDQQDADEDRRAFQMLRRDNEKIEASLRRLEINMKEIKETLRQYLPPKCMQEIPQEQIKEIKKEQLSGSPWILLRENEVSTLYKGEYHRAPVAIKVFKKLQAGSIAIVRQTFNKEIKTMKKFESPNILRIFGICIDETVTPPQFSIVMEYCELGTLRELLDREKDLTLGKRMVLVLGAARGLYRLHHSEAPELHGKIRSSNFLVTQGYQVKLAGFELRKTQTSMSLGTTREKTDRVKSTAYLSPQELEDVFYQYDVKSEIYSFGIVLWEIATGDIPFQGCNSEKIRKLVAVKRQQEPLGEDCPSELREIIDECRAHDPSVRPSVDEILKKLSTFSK
In words: Competitive binding affinity to Myc-tagged MLKL (unknown origin) transfected in human HeLa cells at 20 nM by Western blot analysis in presence of biotin-labeled positive probe. Type of assay: cell-based.

Each structure is given as a SMILES string. Activity calls are given as the source filed them. The rule behind the calls is not given here. Residues, ends and D or L forms follow the SMILES beside them. *: point of attachment. X1 = COc1nc(CCCN*)cnc1NS(=O)(=O)c1ccc(NC(=O)CCc2cccs2)cc1; Biotin = O=C1N[C@H]2[C@H](CS[C@H]2CCCCC(=O)*)N1; Ahx = NCCCCCC(=O)O

Consider `O=C(/C=C/c1ccc([N+](=O)[O-])s1)Nc1ccc(S(=O)(=O)Nc2nccnc2O)cc1`, for which the viability at 4 µM in assay [1] was 90.4%.
`COc1nccnc1NS(=O)(=O)c1ccc(NC(=O)CCc2cccs2)cc1`: the viability at 4 µM in assay [1] came to 30.4%.
Turning to `COc1nc(CCCNC(=O)CC[C@H](NC(=O)[C@@H]2CCCN2C(=O)[C@@H]2CCCN2C(=O)[C@@H]2CCCN2C(=O)[C@@H]2CCCN2C(=O)[C@@H]2CCCN2C(=O)[C@@H]2CCCN2C(=O)[C@@H]2CCCN2C(=O)[C@@H]2CCCN2C(=O)[C@@H]2CCCN2C(=O)CCCCCNC(=O)CCCC[C@@H]2SC[C@@H]3NC(=O)N[C@@H]32)C(N)=O)cnc1NS(=O)(=O)c1ccc(NC(=O)CCc2cccs2)cc1` ({Biotin-Ahx}-PPPPPPPPPE(X1)-NH2), the result in assay [1] was inactive.
With `O=C(/C=C/c1ccc([N+](=O)[O-])s1)Nc1ccc(S(=O)(=O)Nc2nccnc2OCc2ccccc2)cc1`, the viability at 4 µM in assay [1] worked out at 92.2%.
For `Cc1cc(C)nc(NS(=O)(=O)c2ccc(NC(=O)/C=C/c3ccc([N+](=O)[O-])s3)cc2)n1`, in assay [1], the viability at 4 µM amounted to 79.2%.
On to `COc1nccnc1NS(=O)(=O)c1ccc(NC(=O)/C=C/c2ccc([N+](=O)[O-])s2)cc1`, for which the viability at 4 µM in assay [1] was determined as 80.3%. For the same compound, in assay [2], the outcome was Active.
On to `COc1nccnc1NS(=O)(=O)c1ccc(NC(=O)/C=C/c2cccs2)cc1`, for which, in assay [1], the viability at 4 µM worked out at 29.5%.
Still for that read-out and setting: the result for `COc1nccnc1NS(=O)(=O)c1ccc(NC(=O)/C=C/c2ccc([N+](=O)[O-])cc2)cc1` reads 32.2%; that for `COc1nccnc1NS(=O)(=O)c1ccc(NC(=O)/C=C/c2cccc([N+](=O)[O-])c2)cc1`, 32%.
On to `COc1nccnc1NS(=O)(=O)c1ccc(NC(=O)/C=C/c2ccc(Br)s2)cc1`, for which, in assay [1], the viability at 4 µM amounted to 31.8%. The outcome in assay [2] was inactive.
As for `C#CCOc1nccnc1NS(=O)(=O)c1ccc(NC(=O)/C=C/c2ccc([N+](=O)[O-])s2)cc1`, the viability at 4 µM in assay [1] amounted to 90.8%.
Take `COc1nc(CCCNC(=O)CC[C@H](NC(=O)[C@@H]2CCCN2C(=O)[C@@H]2CCCN2C(=O)[C@@H]2CCCN2C(=O)[C@@H]2CCCN2C(=O)C2CCCN2C(=O)[C@@H]2CCCN2C(=O)[C@@H]2CCCN2C(=O)[C@@H]2CCCN2C(=O)[C@@H]2CCCN2C(=O)CCCCCNC(=O)CCCC[C@@H]2SC[C@@H]3NC(=O)N[C@@H]32)C(N)=O)cnc1NS(=O)(=O)c1ccc(NC(=O)/C=C/c2ccc([N+](=O)[O-])s2)cc1` (single isomer, unassigned): the outcome in assay [1] was Active.
For the compound `COc1nc(Br)cnc1NS(=O)(=O)c1ccc(NC(=O)/C=C/c2ccc([N+](=O)[O-])s2)cc1`, the viability at 4 µM in assay [1] is 90.8%.
With `C#CCOc1nccnc1NS(=O)(=O)c1ccc(NC(=O)/C=C/c2sccc2[N+](=O)[O-])cc1`, the viability at 4 µM in assay [1] is 19.8%. Further, the result in assay [2] was inactive.
Regarding `COc1nccnc1NS(=O)(=O)c1ccc(NC(=O)CCc2ccc([N+](=O)[O-])s2)cc1`, the viability at 4 µM in assay [1] stood at 29.9%.

For the origin of these results see ChEMBL document CHEMBL3217478, “Necrosulfonamide inhibits necroptosis by selectively targeting the mixed lineage kinase domain-like protein” (2014).
